The values that follow come from paper PMC4382154, “Screening of the Pan-African Natural Product Library Identifies Ixoratannin A-2 and Boldine as Novel HIV-1 Inhibitors” (PLoS ONE, 2015).

Holding throughout (type): cell-based
Data set [1] relates to HIV-1NL4-3. The data set is described as follows: microbe, parasite or virus in culture. The note with it: for percent GFP-positive (HIV-infected) cells: 100 μM; for selectivity index (SI): CC50 over EC50 in CEM-GXR cells; for EC50: read-out: HIV-1NL4-3 inhibition (EC50). The method, then:
(§1) CEM-GXR cells are an immortalized CD4+ T-lymphocyte line engineered that naturally express the HIV-1 coreceptor CXCR4 and have been further engineered to express the HIV-1 co-receptor CCR5 and a Tat-driven LTR-GFP expression cassette. As such, intracellular GFP expression indicates HIV-1 infection. Cultures of 10^5 CEM-GXR cells were seeded into 96-well plates with RPMI-1640 media (Sigma) supplemented with penicillin/streptomycin plus 20% fetal calf serum (R20+), infected with HIV-1 at a multiplicity of infection of 0.03 (to achieve 3% infected cells on Day 2), and incubated at 37°C and 5% CO2. 24 hours later, cells were pelleted at 750 g and resuspended in R20+ containing compound or 0.1% DMSO. […] Cells were then incubated at 37°C and 5% CO2 for an additional 72 h. 5,000 cells from each culture were measured for cell toxicity and GFP expression by flow cytometry. Flow cytometry data were analyzed using FlowJo v. 8.8.7 software (FlowJo LLC, Ashland, OR). […] Background GFP expression in uninfected cultures was set at 0.05% GFP-positive cells. For each experiment, all data points were obtained in triplicate. All data are reported as the mean ± s.e.m. from at least 3 independent experiments performed with different virus stocks and/or performed on different days. However, all experiments that compare HIV-1NL4-3 and mutant HIV-1 were performed in parallel. EC50 and CC50 values for each compound were calculated from at least four concentrations. Statistical analyses were performed using Student’s unpaired t test, with a p value < 0.05 plus a Bonferroni correction to adjust for multiple comparisons considered significant.
(§2) To assess the effects of these eight compounds on cell viability and HIV-1 replication, we infected a GFP-reporter CEM CD4+ T cell line (CEM-GXR) with the NL4-3 strain of HIV-1 (HIV-1NL4-3). Briefly, cells were infected with HIV-1NL4-3 at a multiplicity of infection of 0.03 (Day 0), followed by removal of HIV-1 and addition of compound (or 0.1% DMSO vehicle control) 24 hours later (Day 1) and incubation for an additional 72 hours to allow HIV-1 spread (Days 2–4). On Days 2 and/or 4, the percent HIV-1 infected (i.e., GFP-expressing) cells was measured by flow cytometry. Cell viability was assessed by measuring the percentage of cells displaying normal forward- and side-scatter parameters in drug-treated, HIV-1 infected cultures compared to 0.1% DMSO-treated, HIV-1 infected control cultures. […] HIV-1NL4-3 replication was unaffected by the presence of 0.1% DMSO vehicle control (Fig. 2B).

For data set [2], the system named is HIV-1PR+RT. The data set is described as follows: HIV-1PR+RT replication in CEM-GXR cells. The note with it: for HIV-1PR+RT replication fold higher than HIV-1NL4-3: 75 μM; for EC50: Human immunodeficiency virus 1, CEM-GXR, 96 h, read-out: EC50 HIV-1PR+RT. The procedure:
(§3) HIV-1Δvpu was constructed by digesting plasmid p210-13 3’ Δ-vpu with EcoRI and NheI enzymes. The resulting DNA fragment was then ligated into wild-type pNL4-3 plasmid digested with the same enzymes. HIV-1Δvpu and HIV-1NL4-3 viral stocks were prepared by transfection of HEK-293T cells, as previously described. Patient plasma-HIV-1 RNA sequences were analyzed for resistance mutations using the HIV Drug Resistance Database Genotype Resistance Interpretation Algorithm (hivdb.stanford.edu). Recombinant HIV-1NL4-3 expressing patient-derived HIV-1 sequences harboring resistance mutations to protease and reverse transcriptase inhibitors (HIV-1PR+RT), reverse transcriptase inhibitors (HIV-1RT), and integrase inhibitors (HIV-1INT) were generated by homologous recombination following co-transfection as reported.
as §1
(§4) To investigate the mechanisms by which ixoratannin A-2 and boldine may block HIV-1 replication, we used a previously-reported HIV-1NL4-3 strain lacking the Vpu coding region (HIV-1Δvpu). We also constructed recombinant HIV-1NL4-3 strains harboring protease, reverse transcriptase, and/or integrase sequences of HIV-1 strains from patients who had developed resistance to the protease inhibitor Indinavir (IND), the non-nucleoside reverse transcriptase inhibitor Efavirenz (EFV), and/or the integrase inhibitor Raltegravir (RAL) (denoted HIV-1PR+RT, HIV-1RT, and HIV-1INT, respectively). Re-sequencing of the recombinant viruses confirmed the presence of multiple mutations known to confer resistance to IND, EFV, and/or RAL (Table 2).

Data set [3] relates to HIV-1RT. The data set is described as follows: microbe, parasite or virus in culture. The note with it: for EC50: Human immunodeficiency virus 1, CEM-GXR, 96 h, read-out: EC50 HIV-1RT.
Procedure: CEM-GXR cells are an immortalized CD4+ T-lymphocyte line engineered that naturally express the HIV-1 coreceptor CXCR4 and have been further engineered to express the HIV-1 co-receptor CCR5 and a Tat-driven LTR-GFP expression cassette. As such, intracellular GFP expression indicates HIV-1 infection [26]. Cultures of 10^5 CEM-GXR cells were seeded into 96-well plates with RPMI-1640 media (Sigma) supplemented with penicillin/streptomycin plus 20% fetal calf serum (R20+), infected with HIV-1 at a multiplicity of infection of 0.03 (to achieve 3% infected cells on Day 2), and incubated at 37°C and 5% CO2. 24 hours later, cells were pelleted at 750 g and resuspended in R20+ containing compound or 0.1% DMSO. […] Cells were then incubated at 37°C and 5% CO2 for an additional 72 h. 5,000 cells from each culture were measured for cell toxicity and GFP expression by flow cytometry. […] Background GFP expression in uninfected cultures was set at 0.05% GFP-positive cells. For each experiment, all data points were obtained in triplicate. All data are reported as the mean ± s.e.m. from at least 3 independent experiments performed with different virus stocks and/or performed on different days. […] EC50 and CC50 values for each compound were calculated from at least four concentrations. Statistical analyses were performed using Student’s unpaired t test, with a p value < 0.05 plus a Bonferroni correction to adjust for multiple comparisons considered significant.
The nature of data set [4]: Cell toxicity in HIV-1 infected CEM-GXR cultures (forward/side scatter). The note with it: human, HIV-1NL4-3-infected CEM-GXR cells (CD4+ T-lymphocyte line), Day 4. The method, then: as §1, §2
Data set [5] relates to HIV-1NL4-3. The data set is described as follows: HIV-1 replication assay in PBMCs (p24Gag ELISA). The note with it: Day 12. The procedure:
PBMCs from HIV-1 negative subjects, purchased commercially (StemCell Technologies, Vancouver, Canada), were maintained in RPMI-1640 media (Sigma) supplemented with penicillin/streptomycin plus 10% fetal calf serum (R10+). 72 h prior to viral infection, PBMCs were stimulated by addition of 5 μg/mL phytohaemaglutanin (PHA) (Day 0) and maintained in R10+ medium supplemented with 100 units/mL human IL-2. At Day 3 following cellular activation, 3x10^5 cells were infected with HIV-1NL4-3 at a multiplicity of infection of 0.003 (0.3% infected cells) and incubated at 37°C for 6h, followed by wash and re-suspension in fresh R10+ medium supplemented with 100 units/mL human IL-2 and with or without compounds at defined concentrations. Culture supernatants were collected and replaced with fresh medium supplemented with human IL-2 every 3 days (i.e., Days 6, 9, and 12) with or without fresh compounds. Viral replication at day 12 was monitored by measuring cell culture supernatant levels of p24^Gag by ELISA (XpressBio, Frederick, MD) following manufacturer’s instructions.

Data set [6] concerns HIV-1INT. The data set is described as follows: HIV-1INT replication in CEM-GXR cells. The note with it: for EC50: Human immunodeficiency virus 1, CEM-GXR, 96 h, read-out: EC50 HIV-1INT. The method, then: as §3, §1, §4
Setting [7] is: concentrations up to 75 or 100 μM, CEM-GXR cells.

Like-named read-outs stand apart in the source and are kept apart here.

In general, EC50 refers to the concentration at which the effect is half-maximal. A word on the CC50: it is the concentration at which the toxic effect on the cells reaches its halfway point. A low value points to harm at low concentration. Turning to `COc1cc2c(cc1O)C[C@H]1c3c(cc(O)c(OC)c3-2)CCN1C` [boldine], the “percent GFP-positive (HIV-infected) cells” value in data set [1] (Day 2, HIV-1NL4-3-infected CEM-GXR cells (infected control 3.14)) came to 2.17%; in data set [1] (Day 4, HIV-1NL4-3-infected CEM-GXR cells (infected control 10.80)) it was 4.09%. The “selectivity index (SI)” value in data set [1] is recorded as 4.1. The EC50 was 50.2 µM in data set [1] (Human immunodeficiency virus 1, CEM-GXR, 96 h); above 100 µM in data set [2]; above 100 µM in data set [3]; above 100 µM in data set [6]. Further, the “HIV-1PR+RT replication fold greater vs. HIV-1NL4-3” value in data set [2] (25 μM, CEM-GXR cells) was found to be 1.4 fold. In data set [2] (CEM-GXR cells), the “HIV-1PR+RT replication fold higher than HIV-1NL4-3” value is given as 1.5 fold. Further, the “HIV-1PR+RT replication fold increased vs. HIV-1NL4-3” value in data set [2] (concentration not stated) is 1.4 fold. Moreover, the “inhibition of HIV-1PR+RT” value in data set [2] (setting [7]) is recorded as below 50%. The “inhibition of HIV-1RT” value in data set [3] (setting [7]) was below 50%. Further, in data set [4], the CC50 at 72 h was above 100 µM. In addition, the “reduced HIV-1 replication in PBMCs (p24Gag)” value in data set [5] (100 μM) is 47.0%. The “inhibition of HIV-1INT” value in data set [6] (setting [7]) is reported as below 50%.
With `Oc1cc(O)c2c(c1)OC1(c3ccc(O)c(O)c3)Oc3c4c(c5c(c3C2C1O)OC1(c2ccc(O)c(O)c2)Oc2cc(O)cc(O)c2C5C1O)OC(c1ccc(O)c(O)c1)C(O)C4` (stereo not drawn) [ixoratannin A-2], the “selectivity index (SI)” value in data set [1] was 1.7. The EC50 worked out at 34.4 µM in data set [1] (Human immunodeficiency virus 1, 96 h, CEM-GXR cells, Day 4); 36.4 µM in data set [2]; 33.7 µM in data set [3]; 38.4 µM in data set [6]. Moreover, the “HIV-1PR+RT replication fold higher than HIV-1NL4-3” value in data set [2] (CEM-GXR cells) was found to be 1.5 fold. Moreover, the CC50 at 72 h in data set [4] came to 57.5 µM. The “reduced HIV-1 replication in PBMCs (p24Gag)” value in data set [5] (25 μM) is reported as 39.0%. The “HIV-1INT replication fold higher than HIV-1NL4-3” value in data set [6] (75 μM, CEM-GXR cells) worked out at 1.5 fold.
